Data taken from patent US12156909B2, “Reverse peptide vaccine” (Emergex Vaccines Holding Limited, priority 2018, dated 2024).

Legend:
MHC class I = type: cell-based
HLA-A24 = test: HLA binding of NEG8 peptides shared with other flu proteins (Table 5), A24; conditions: no method or unit given
Excerpt: (§1) was used to search datasets of T cell epitopes derived from influenza virus infected cells. The NEG8 peptides described in Examples 1 and 2 were also identified using this search. The purpose of performing the search was to establish whether any NEG8 peptides or sequences within the polypeptide encoded by the NEG8 ORF are shared with any other influenza A virus proteins. Table 5 sets out T cell epitopes derived from influenza A virus proteins other than NEG8 that are also comprised in one or more of the NEG8 peptides identified in Examples 1 and 2 or the polypeptide encoded by the NEG8 ORF. From this, numerous NEG8 peptides considered to bind to MHC in cells infected with influenza A virus can be identified based on confidence level, XCorr, and performance of fragment mass spectra.

HLA-A2 = test: HLA binding of NEG8 peptides shared with other flu proteins (Table 5), A2; conditions: score printed after 'A2:'; no method or unit given
Excerpt: as §1

HLA-B7 = test: HLA binding of NEG8 peptides shared with other flu proteins (Table 5), B7; conditions: score printed after 'B7:'; no method or unit given
Excerpt: as §1

Row | Sequence | found in influenza A virus-infected cells (MHC class I) | HLA binding A24 (HLA-A24) | HLA binding A2 (HLA-A2) | HLA binding B7 (HLA-B7)
1 | KITLKFAFNMM (Influenza A virus) | truly found in influenza A virus-infected cells |  |  | 
2 | AILSLQTFD (Influenza A virus) |  | A24:2 |  | 
3 | LFLICVSLL (Influenza A virus) |  | A24:21 | A2:18 | 
4 | LMQRGPSTF (Influenza A virus) | truly found in influenza A virus-infected cells |  |  | 
5 | SPLQLAILSL (Influenza A virus) |  |  |  | B7:22
6 | AFSVMFLSM |  | A24:7 |  | 
7 | ALSSIRVSS (Influenza A virus) |  |  | A2:16 | B7:7
8 | AFNMMFLSM |  | A24:7 | A2:10 | 
9 | IAPSSVKALS (Influenza A virus) | truly found in influenza A virus-infected cells |  |  | 
10 | FLICVSPLQL (Influenza A virus) |  | A24:13 | A2:24 | 
